# According to patent US20230082929A1, “METHODS OF GENERATING AND USING SENESCENT-INDUCED CELLS FOR TREATMENT OF CANCER AND COMPOSITIONS RELATING THERETO” (The Wistar Institute of Anatomy and Biology, priority 2020, published 2023):
# Experiments:
# [1] = system: ID8-Defb29/Vegf-a ovarian cancer; assay: In vivo orthotopic syngeneic ID8-Defb29/Vegf-a ovarian cancer mouse model
# Procedure: For orthotopic syngeneic model, luciferase expressing ID8-Defb29/Vegf-a with inducible shHMGB2 cells were pretreated with 2 μM Cisplatin for 48 hours to induce CCFs. 5×10^6 cells were i.p. injected into the peritoneal cavity of C57BL/6 mouse (female, 6-8 weeks old, CRL/NCI) (Zhu et al., 2016). Animals were randomly assigned to different treatment groups (10 mice/group). The mice in control groups were fed with control rodent diet (Fisher Scientific. Cat. No: 14-726-309). For the HMGB2 knockdown groups, mice were fed with Bio-Serv™ Doxycycline Grain-Based Rodent Diet (Fisher Scientific. Cat. No: 14-727-450) to induce HMGB2 knockdown. Tumor progression was monitored twice a week using a Xenogen IVIS Spectrum in vivo bioluminescence imaging system. Images were analyzed using Live Imaging 4.0 software. Tumor-bearing mice were treated by i.p. injection with isotype control IgG or anti-PD-L1 antibody (Bio X Cell, Cat. No: B7-H1, clone 10 F.9G2, 10 mg kg^-1) every 3 days with or without simultaneous TOP1 inhibitor camptothecin treatment (Selleck Cat. No: S1288; 8 mg kg^-1). For survival analysis, the Wistar Institute IACUC guideline was followed in determining the time for ending the survival experiments (tumor burden exceeds 10% of body weight).
# [2] = system: SASP factors; assay: Secreted cytokine antibody array, IMR90 cells; type: cell-based, human; settings: HMGB2 knockdown senescent IMR90 cells
# Procedure: For cytokine-array analysis, cells were washed once and cultured in serum-free medium for 48 hours (Nacarelli et al., 2019). Conditioned medium was filtered (0.2 μm) and then subjected to cytokine-array assay using Human Cytokine Array C1 kit (RayBiotech. Cat. No: AAH-CYT-1-2) following the manufacturer's guidelines. After collection of conditional media, the cell number of each sample was counted. The intensities of array dots were visualized on film after incubation with SuperSignal West Pico PLUS Chemiluminescent Substrate (Thermo Fisher Scientific. Cat. No: 34580). The integrated density was measured using Image J and normalized to the cell number from which the conditioned medium was generated.
# [3] = system: 2′3′-cGAMP; assay: 2′3′-cGAMP ELISA in IMR90 cells; type: cell-based, human; settings: senescent IMR90 cells with HMGB2 knockdown
# Procedure: 2′ 3′-cGAMP ELISA Kit (Cayman chemical. Cat. No:501700) was used to analyze the endogenous level of 2′ 3′-cGAMP following the manufacturer's instructions. 1×10^5 IMR90 cells were incubated in 200 μL lysis buffer (ThermoFisher, Cat. No: 78501) on ice for 30 minutes. The 2′ 3′-cGAMP ELISA was performed following the manufacturer's instructions.
# [4] = biological target: T1, TOP1cc (Homo sapiens, UniProt P11387); assay: Slot blot analysis of TOP1cc levels in purified CCF of senescent cells; type: cell-based; design: endogenous in cells; host or cells: IMR90 human fibroblasts (senescent or proliferating, with or without shHMGB2); OVCAR3 (with or without HMGB2 knockout); settings: CCF isolated from HMGB2 knockdown or knockout senescent cells (IMR90, OVCAR3)
# T1 sequence (P11387 1-765): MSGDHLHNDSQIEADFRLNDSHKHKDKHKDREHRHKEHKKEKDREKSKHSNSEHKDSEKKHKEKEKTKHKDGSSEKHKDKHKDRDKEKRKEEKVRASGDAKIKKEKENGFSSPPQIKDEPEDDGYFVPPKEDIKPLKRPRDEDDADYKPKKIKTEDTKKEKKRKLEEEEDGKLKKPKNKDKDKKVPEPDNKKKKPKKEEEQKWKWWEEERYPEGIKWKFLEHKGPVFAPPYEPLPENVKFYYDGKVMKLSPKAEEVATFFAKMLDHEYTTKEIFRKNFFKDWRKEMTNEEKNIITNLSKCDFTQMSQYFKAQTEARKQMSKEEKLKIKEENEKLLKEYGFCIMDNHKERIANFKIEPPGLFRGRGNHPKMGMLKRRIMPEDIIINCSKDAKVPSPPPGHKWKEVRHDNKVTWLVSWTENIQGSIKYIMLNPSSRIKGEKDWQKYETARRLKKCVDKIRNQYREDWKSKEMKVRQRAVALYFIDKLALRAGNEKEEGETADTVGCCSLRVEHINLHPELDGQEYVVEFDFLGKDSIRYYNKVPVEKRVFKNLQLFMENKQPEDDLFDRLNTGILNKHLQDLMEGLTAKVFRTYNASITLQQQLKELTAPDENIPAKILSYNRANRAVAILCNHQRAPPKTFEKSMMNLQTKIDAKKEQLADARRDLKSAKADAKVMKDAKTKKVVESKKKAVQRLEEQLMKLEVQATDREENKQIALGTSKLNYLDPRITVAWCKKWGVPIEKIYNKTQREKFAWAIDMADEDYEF
# Procedure: A CCF purification protocol was developed by modifying previous protocols (Shimizu et al., 1996; Ly et al., 2017). Briefly, 500 million senescent cells were collected, resuspended, and incubated in DMEM containing 10 μg/mL cytochalasin B for 30 minutes at 37° C. After wash once with ice-cold PBS, the cell pellet was gently dounce homogenized in ice-cold pre-chilled lysis buffer (10 mM Tris-HCl, 2 mM magnesium acetate, 3 mM CaCl2), 0.32 M sucrose, 0.1 mM EDTA, 1 mM DTT, 0.1% NP-40, 0.15 mM spermine, 0.75 mM spermidine, 10 μg/ml cytochalasin B, pH 8.5, 4° C.) with ten slow strokes of a loose-fitting pestle. Release of nuclei was confirmed by DAPI-staining and microscopy. The homogenate was fixed with 1% formaldehyde for 10 minutes, and mixed well with an equal volume of 1.6M sucrose buffer (10 mM Tris-HCl, 5 mM magnesium acetate, 0.1 mM EDTA, 1 mM DTT, 0.3% BSA, 0.15 mM spermine, 0.75 mM spermidine, pH 8.0, 4° C.). A 10 mL portion of homogenate was layered on the top of sucrose buffer gradient (20 mL and 15 mL containing 1.8M and 1.6M of sucrose, respectively) in a 50 mL tissue culture tube. The tubes were centrifuged at 1200×g for 20 minutes at 4° C. After centrifugation, the upper 3 mL of the gradient was discarded, and the next 15 mL containing CCFs was collected. […] DNA concentration was measured using Nanodrop and 5 μg DNA was used for slot blot analysis.
smiles,measurement,setting,value
"CC[C@@]1(O)C(=O)OCc2c1cc1n(c2=O)Cc2cc3ccccc3nc2-1 [CPT, Camptothecin]",anti-PD-L1 treatment response (tumor growth by luciferase bioluminescence),"[1]; HMGB2 knockdown tumors, CPT 8 mg kg-1 i.p. with anti-PD-L1 antibody 10 mg kg-1 every 3 days",significantly restored the anti-PD-L1 response
same,body weight of the treated mice,"[1]; anti-PD-L1 antibody-treated group, during treatment period",did not affect the body weight
same,survival of mice,"[1]; mice bearing HMGB2 knockdown tumors, CPT with anti-PD-L1 antibody",rescued the survival
same,secretion of SASP factors (antibody array),[2],restoration of the secretion of SASP factors
same,2′3′-cGAMP levels,[3],rescued
same,TOP1cc levels in CCF,[4],restored the TOP1cc levels
same,TOP1cc levels in CCF,[4]; listed as Camptothecin,Rescue of the decrease in TOP1cc levels
